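Tested at 5 concentrations; 48 h exposure; 96-well plates; endpoints linearly interpolated, else capped at highest concentration. Abbreviation: GI50, concentration required for 50% inhibition of growth. TGI is the concentration that stops growth completely.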
Key:
Test in all cases: NCI-60 cell line screen, 48 h
786-0 renal = system: 786-0 renal
A498 renal = system: A498 renal
A549 NSCLC = system: A549 NSCLC
ACHN renal = system: ACHN renal
BT-549 breast = system: BT-549 breast
CAKI-1 renal = system: CAKI-1 renal
CCRF-CEM leukemia = system: CCRF-CEM leukemia
COLO 205 colon = system: COLO 205 colon
DU-145 prostate = system: DU-145 prostate
EKVX NSCLC = system: EKVX NSCLC
HCC-2998 colon = system: HCC-2998 colon
HCT-116 colon = system: HCT-116 colon
HCT-15 colon = system: HCT-15 colon
HL-60(TB) leukemia = system: HL-60(TB) leukemia
HOP-62 NSCLC = system: HOP-62 NSCLC
HOP-92 NSCLC = system: HOP-92 NSCLC
HS 578T breast = system: HS 578T breast
HT29 colon = system: HT29 colon
IGROV1 ovarian = system: IGROV1 ovarian
KM12 colon = system: KM12 colon
LOX IMVI melanoma = system: LOX IMVI melanoma
M14 melanoma = system: M14 melanoma
MALME-3M melanoma = system: MALME-3M melanoma
MCF7 breast = system: MCF7 breast
MDA-MB-231 breast = system: MDA-MB-231 breast
MDA-MB-435 = system: MDA-MB-435
NCI-H226 lung = system: NCI-H226 lung
NCI-H23 lung = system: NCI-H23 lung
NCI-H460 lung = system: NCI-H460 lung
NCI-H522 lung = system: NCI-H522 lung
NCI/ADR-RES ovarian = system: NCI/ADR-RES ovarian
OVCAR-4 ovarian = system: OVCAR-4 ovarian
OVCAR-5 ovarian = system: OVCAR-5 ovarian
OVCAR-8 ovarian = system: OVCAR-8 ovarian
PC-3 prostate = system: PC-3 prostate
RPMI-8226 leukemia = system: RPMI-8226 leukemia
RXF 393 renal = system: RXF 393 renal
SF-268 CNS = system: SF-268 CNS
SF-295 CNS = system: SF-295 CNS
SF-539 CNS = system: SF-539 CNS
SK-MEL-2 melanoma = system: SK-MEL-2 melanoma
SK-MEL-28 melanoma = system: SK-MEL-28 melanoma
SK-MEL-5 melanoma = system: SK-MEL-5 melanoma
SK-OV-3 ovarian = system: SK-OV-3 ovarian
SN12C renal = system: SN12C renal
SNB-19 CNS = system: SNB-19 CNS
SNB-75 CNS = system: SNB-75 CNS
SW-620 colon = system: SW-620 colon
T-47D breast = system: T-47D breast
TK-10 renal = system: TK-10 renal
U251 CNS = system: U251 CNS
UACC-257 melanoma = system: UACC-257 melanoma
UACC-62 melanoma = system: UACC-62 melanoma
UO-31 renal = system: UO-31 renal
SR leukemia = system: SR leukemia

COc1ccccc1/C=C/C1=C(C)CCC(c2ccccc2OC)C1C (stereo not drawn)
GI50 (786-0 renal): 196 nM
TGI (786-0 renal): 2510 nM
GI50 (A498 renal): 92.3 nM
TGI (A498 renal): 534 nM
GI50 (A549 NSCLC): 223 nM
GI50 (ACHN renal): 272 nM
TGI (ACHN renal): > 100000 nM
GI50 (BT-549 breast): 270 nM
TGI (BT-549 breast): 1730 nM
GI50 (CAKI-1 renal): 157 nM
TGI (CAKI-1 renal): 7690 nM
GI50 (CCRF-CEM leukemia): 68.4 nM
TGI (CCRF-CEM leukemia): > 100000 nM
GI50 (COLO 205 colon): 210 nM
TGI (COLO 205 colon): 498 nM
GI50 (DU-145 prostate): 220 nM
TGI (DU-145 prostate): 868 nM
GI50 (EKVX NSCLC): 119 nM
TGI (EKVX NSCLC): > 100000 nM
GI50 (HCC-2998 colon): 249 nM
TGI (HCC-2998 colon): 1560 nM
GI50 (HCT-116 colon): 108 nM
TGI (HCT-116 colon): 3140 nM
GI50 (HCT-15 colon): 129 nM
TGI (HCT-15 colon): > 100000 nM
GI50 (HL-60(TB) leukemia): 262 nM
TGI (HL-60(TB) leukemia): 603 nM
GI50 (HOP-62 NSCLC): 153 nM
TGI (HOP-62 NSCLC): 19300 nM
GI50 (HOP-92 NSCLC): 632 nM
TGI (HOP-92 NSCLC): > 100000 nM
GI50 (HS 578T breast): 112 nM
TGI (HS 578T breast): 708 nM
GI50 (HT29 colon): 167 nM
GI50 (IGROV1 ovarian): 132 nM
TGI (IGROV1 ovarian): > 63500 nM
GI50 (KM12 colon): 87.9 nM
GI50 (LOX IMVI melanoma): 184 nM
TGI (LOX IMVI melanoma): > 56800 nM
GI50 (M14 melanoma): 160 nM
TGI (M14 melanoma): 655 nM
GI50 (MALME-3M melanoma): 11900 nM
TGI (MALME-3M melanoma): > 100000 nM
GI50 (MCF7 breast): 63.3 nM
TGI (MCF7 breast): 1280 nM
GI50 (MDA-MB-231 breast): 157 nM
TGI (MDA-MB-231 breast): 6410 nM
GI50 (MDA-MB-435): 59.5 nM
TGI (MDA-MB-435): 154 nM
GI50 (NCI-H226 lung): 223 nM
TGI (NCI-H226 lung): 627 nM
GI50 (NCI-H23 lung): 188 nM
TGI (NCI-H23 lung): 13600 nM
GI50 (NCI-H460 lung): 278 nM
TGI (NCI-H460 lung): 1270 nM
GI50 (NCI-H522 lung): 113 nM
GI50 (NCI/ADR-RES ovarian): 105 nM
GI50 (OVCAR-4 ovarian): 1370 nM
TGI (OVCAR-4 ovarian): > 100000 nM
GI50 (OVCAR-5 ovarian): 403 nM
TGI (OVCAR-5 ovarian): > 68200 nM
GI50 (OVCAR-8 ovarian): 137 nM
GI50 (PC-3 prostate): 392 nM
TGI (PC-3 prostate): > 100000 nM
GI50 (RPMI-8226 leukemia): 44.9 nM
TGI (RPMI-8226 leukemia): > 100000 nM
GI50 (RXF 393 renal): 110 nM
GI50 (SF-268 CNS): 201 nM
TGI (SF-268 CNS): > 73000 nM
GI50 (SF-295 CNS): < 20.1 nM
TGI (SF-295 CNS): 1530 nM
GI50 (SF-539 CNS): 83.3 nM
TGI (SF-539 CNS): 215 nM
GI50 (SK-MEL-2 melanoma): 224 nM
TGI (SK-MEL-2 melanoma): > 100000 nM
GI50 (SK-MEL-28 melanoma): 240 nM
TGI (SK-MEL-28 melanoma): > 100000 nM
GI50 (SK-MEL-5 melanoma): 122 nM
TGI (SK-MEL-5 melanoma): 379 nM
GI50 (SK-OV-3 ovarian): 382 nM
TGI (SK-OV-3 ovarian): > 100000 nM
GI50 (SN12C renal): 323 nM
TGI (SN12C renal): > 100000 nM
GI50 (SNB-19 CNS): 226 nM
TGI (SNB-19 CNS): > 100000 nM
GI50 (SNB-75 CNS): 131 nM
TGI (SNB-75 CNS): 76500 nM
GI50 (SW-620 colon): 138 nM
TGI (SW-620 colon): > 100000 nM
GI50 (T-47D breast): 4360 nM
TGI (T-47D breast): > 100000 nM
GI50 (TK-10 renal): 227 nM
TGI (TK-10 renal): 45100 nM
GI50 (U251 CNS): 132 nM
TGI (U251 CNS): 22500 nM
TGI (UACC-257 melanoma): > 89800 nM
GI50 (UACC-62 melanoma): 68.4 nM
TGI (UACC-62 melanoma): 40300 nM
GI50 (UO-31 renal): 371 nM
TGI (UO-31 renal): > 100000 nM

c1ccc(-c2n(Cc3ccc4ccccc4c3)cc[n+]2Cc2ccc3ccccc3c2)cc1
GI50 (786-0 renal): 1460 nM
TGI (786-0 renal): 3020 nM
GI50 (ACHN renal): 1770 nM
TGI (ACHN renal): 3430 nM
GI50 (CCRF-CEM leukemia): 1560 nM
TGI (CCRF-CEM leukemia): 4060 nM
GI50 (DU-145 prostate): 1380 nM
TGI (DU-145 prostate): 2730 nM
GI50 (HCT-116 colon): 665 nM
TGI (HCT-116 colon): 2140 nM
GI50 (HCT-15 colon): 1790 nM
TGI (HCT-15 colon): 3460 nM
GI50 (HS 578T breast): 1610 nM
TGI (HS 578T breast): 4080 nM
GI50 (IGROV1 ovarian): 651 nM
TGI (IGROV1 ovarian): 2130 nM
GI50 (MALME-3M melanoma): 1140 nM
TGI (MALME-3M melanoma): 2560 nM
GI50 (MDA-MB-231 breast): 1070 nM
TGI (MDA-MB-231 breast): 2350 nM
GI50 (MDA-MB-435): 1020 nM
TGI (MDA-MB-435): 2240 nM
GI50 (NCI-H23 lung): 775 nM
TGI (NCI-H23 lung): 2350 nM
GI50 (NCI/ADR-RES ovarian): 13900 nM
TGI (NCI/ADR-RES ovarian): 35400 nM
GI50 (OVCAR-5 ovarian): 1360 nM
TGI (OVCAR-5 ovarian): 2750 nM
GI50 (PC-3 prostate): 1220 nM
TGI (PC-3 prostate): 2680 nM
GI50 (RXF 393 renal): 1120 nM
TGI (RXF 393 renal): 2440 nM
GI50 (SF-295 CNS): 1260 nM
TGI (SF-295 CNS): 2550 nM
GI50 (SF-539 CNS): 1450 nM
TGI (SF-539 CNS): 2810 nM
GI50 (SK-MEL-28 melanoma): 1140 nM
TGI (SK-MEL-28 melanoma): 2530 nM
GI50 (SK-MEL-5 melanoma): 481 nM
TGI (SK-MEL-5 melanoma): 1690 nM
GI50 (SK-OV-3 ovarian): 1490 nM
TGI (SK-OV-3 ovarian): 2890 nM
GI50 (SN12C renal): 1260 nM
TGI (SN12C renal): 2640 nM
GI50 (SNB-75 CNS): 1160 nM
TGI (SNB-75 CNS): 2580 nM
GI50 (SR leukemia): 972 nM
TGI (SR leukemia): 3400 nM
GI50 (SW-620 colon): 1080 nM
TGI (SW-620 colon): 2480 nM
GI50 (TK-10 renal): 1340 nM
TGI (TK-10 renal): 2830 nM
GI50 (UACC-62 melanoma): 447 nM
TGI (UACC-62 melanoma): 1730 nM
GI50 (UO-31 renal): 1470 nM
TGI (UO-31 renal): 2870 nM

C[C@@H](Nc1nc(Nc2ccc(F)c(Cl)c2)nc2c(C3=CCNCC3)cccc12)C1CC1
GI50 (ACHN renal): 1810 nM
TGI (ACHN renal): 3320 nM
GI50 (CAKI-1 renal): 1580 nM
TGI (CAKI-1 renal): 2990 nM
GI50 (CCRF-CEM leukemia): 2210 nM
TGI (CCRF-CEM leukemia): 5540 nM
GI50 (DU-145 prostate): 1640 nM
TGI (DU-145 prostate): 3040 nM
GI50 (HS 578T breast): 1990 nM
TGI (HS 578T breast): 4820 nM
GI50 (MDA-MB-231 breast): 1720 nM
TGI (MDA-MB-231 breast): 3280 nM
GI50 (NCI-H226 lung): 2310 nM
TGI (NCI-H226 lung): 5030 nM
GI50 (OVCAR-5 ovarian): 1530 nM
TGI (OVCAR-5 ovarian): 3250 nM
GI50 (SF-539 CNS): 1680 nM
TGI (SF-539 CNS): 3170 nM
GI50 (T-47D breast): 1910 nM
TGI (T-47D breast): 4380 nM
GI50 (UACC-62 melanoma): 1820 nM
TGI (UACC-62 melanoma): 3360 nM

Reference: PubChem BioAssay (NCI)
